Experimental findings from the supplement of paper PMC11208160 are described below.

This data set is described as follows: recombinant UMI read abundance after kanamycin selection (control-corrected) (log10(CPM+1)); higher = more efficient recombination; extreme values may be limits of the assay; sequences stand for … in AGTGCAGAGAAAATCGGCCAGTTTTCTCTGCCTGCAGTCCGCATGCCGTGGGACCCCTTGGGTTCTAACCTGTTGCCTAGATTTATGCAGCGGACTGCCTTTCTCCCAAAGTGATAAACCGG…AGGTTGGTTTCACT; site = the 11-nt donor. The protocol:
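Pooled E. coli donor-specificity screen for the IS621 bridge recombinase. Each library member carries a reprogrammed 11-nt donor and a full-length LE bridge RNA expressed in cis from the natural promoter, with a paired donor-binding loop (8-nt LDG + 4-nt RDG) and a target-binding loop fixed to T5. It is co-electroporated with a T5 target plasmid; recombinase is induced with 0.07 mM IPTG and recombinants are selected on kanamycin. UMIs are counted as CPM, averaged over two biological replicates and corrected by the unselected control. Molecule = full bridge RNA written as DNA, built from the T5 scaffold: LDG = donor specificity nt 1-8, RDG = reverse complement of nt 8-11.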
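Note: IS621 bridge recombinase in Escherichia coli cells against a fixed T5 target plasmid.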

Consider “AAGAATTCATGGACCGGTTTTCCCGGTAATCCGTATTTGTA (site AAGAATTCTTA)”, for which the “recombinant UMI read abundance (log10)” value was determined as 2.33. As for “AAGACCGCATGGACCGGTTTTCCCGGTAATCCGTATTTGCC (site AAGACCGCTGG)”, the “recombinant UMI read abundance (log10)” value stood at 2.73.

Consider “AAGATGCCATGGACCGGTTTTCCCGGTAATCCGTATTTGTG (site AAGATGCCTCA)”, for which the “recombinant UMI read abundance (log10)” value was 0.653. Turning to “AAGATTCCATGGACCGGTTTTCCCGGTAATCCGTATTTGTA (site AAGATTCCTTA)”, the “recombinant UMI read abundance (log10)” value turned out to be 1.3.

Regarding “AAGCACGCATGGACCGGTTTTCCCGGTAATCCGTATTTGAG (site AAGCACGCTCA)”, the “recombinant UMI read abundance (log10)” value stood at 0.629. Take “AAGCACGCATGGACCGGTTTTCCCGGTAATCCGTATTTGAG (site AAGCACGCTCC)”: the “recombinant UMI read abundance (log10)” value was determined as 0.225. With “AAGCACGCATGGACCGGTTTTCCCGGTAATCCGTATTTGAG (site AAGCACGCTCG)”, the “recombinant UMI read abundance (log10)” value came out at 0.644.

For “AAGCACGCATGGACCGGTTTTCCCGGTAATCCGTATTTGAG (site AAGCACGCTCT)”, the “recombinant UMI read abundance (log10)” value amounted to 1.49. With “AAGCACGCATGGACCGGTTTTCCCGGTAATCCGTATTTGCG (site AAGCACGCTCA)”, the “recombinant UMI read abundance (log10)” value came out at 0.289. Next, “AAGCACGCATGGACCGGTTTTCCCGGTAATCCGTATTTGCG (site AAGCACGCTCC)”: 0.223; “AAGCACGCATGGACCGGTTTTCCCGGTAATCCGTATTTGCG (site AAGCACGCTCG)”: 1.44. As to “AAGCACGCATGGACCGGTTTTCCCGGTAATCCGTATTTGCG (site AAGCACGCTCT)”, the “recombinant UMI read abundance (log10)” value was 0.766.

On to “AAGCACGCATGGACCGGTTTTCCCGGTAATCCGTATTTGGC (site AAGCACGCTAC)”, for which the “recombinant UMI read abundance (log10)” value was 0.701. To “AAGCACGCATGGACCGGTTTTCCCGGTAATCCGTATTTGGC (site AAGCACGCTCC)” belongs 0.0935. Consider “AAGCACGCATGGACCGGTTTTCCCGGTAATCCGTATTTGGC (site AAGCACGCTGC)”, for which the “recombinant UMI read abundance (log10)” value turned out to be 2.71.

On to “AAGCACGCATGGACCGGTTTTCCCGGTAATCCGTATTTGGC (site AAGCACGCTTC)”, for which the “recombinant UMI read abundance (log10)” value was determined as 0.476.

For the sequence “AAGCACGCATGGACCGGTTTTCCCGGTAATCCGTATTTGGT (site AAGCACGCTAC)”, the “recombinant UMI read abundance (log10)” value worked out at 1.48. As to “AAGCACGCATGGACCGGTTTTCCCGGTAATCCGTATTTGGT (site AAGCACGCTCC)”, the “recombinant UMI read abundance (log10)” value amounted to 0.315. Regarding “AAGCACGCATGGACCGGTTTTCCCGGTAATCCGTATTTGGT (site AAGCACGCTGC)”, the “recombinant UMI read abundance (log10)” value came out at 1.24.

As for “AAGCACGCATGGACCGGTTTTCCCGGTAATCCGTATTTGGT (site AAGCACGCTTC)”, the “recombinant UMI read abundance (log10)” value was found to be 0.427. “AAGCATACATGGACCGGTTTTCCCGGTAATCCGTATTTGAC (site AAGCATACTGT)”: the “recombinant UMI read abundance (log10)” value was 2.88. For the sequence “AAGCCCGCATGGACCGGTTTTCCCGGTAATCCGTATTTGGG (site AAGCACGCTCC)”, the “recombinant UMI read abundance (log10)” value stood at 0.00486.

On to “AAGCCCGCATGGACCGGTTTTCCCGGTAATCCGTATTTGGG (site AAGCCCGCTCC)”, for which the “recombinant UMI read abundance (log10)” value was determined as 0.0203. On to “AAGCCCGCATGGACCGGTTTTCCCGGTAATCCGTATTTGGG (site AAGCGCGCTCC)”, for which the “recombinant UMI read abundance (log10)” value is 0.0392.

“AAGCCCGCATGGACCGGTTTTCCCGGTAATCCGTATTTGGG (site AAGCTCGCTCC)”: the “recombinant UMI read abundance (log10)” value was 0.0406. To “AAGCCGGCATGGACCGGTTTTCCCGGTAATCCGTATTTGGC (site AAGCCGGCTGC)” belongs 0; to “AAGCGCTCATGGACCGGTTTTCCCGGTAATCCGTATTTGCG (site AAGCGCTCTCG)”, 2.26; to “AAGGAAACATGGACCGGTTTTCCCGGTAATCCGTATTTGCA (site AAGGAAACTTG)”, 2.06. With “AAGGAATCATGGACCGGTTTTCCCGGTAATCCGTATTTGCG (site AAGGAATCTCG)”, the “recombinant UMI read abundance (log10)” value stood at 3.14.

As for “AAGGAATCATGGACCGGTTTTCCCGGTAATCCGTATTTGCG (site CAGGAATCTCG)”, the “recombinant UMI read abundance (log10)” value was 2.38. For “AAGGAATCATGGACCGGTTTTCCCGGTAATCCGTATTTGCG (site GAGGAATCTCG)”, the “recombinant UMI read abundance (log10)” value is 2.74. As to “AAGGAATCATGGACCGGTTTTCCCGGTAATCCGTATTTGCG (site TAGGAATCTCG)”, the “recombinant UMI read abundance (log10)” value was found to be 3.08.

Consider “AAGGACTCATGGACCGGTTTTCCCGGTAATCCGTATTTGTT (site AAGGACTCTAA)”, for which the “recombinant UMI read abundance (log10)” value amounted to 2.9.

Turning to “AAGGAGCCATGGACCGGTTTTCCCGGTAATCCGTATTTGGG (site AAGGAGCCTCC)”, the “recombinant UMI read abundance (log10)” value was found to be 0.00843. For “AAGGATGCATGGACCGGTTTTCCCGGTAATCCGTATTTGTG (site AAGGATGCTCA)”, the “recombinant UMI read abundance (log10)” value worked out at 2.3. Turning to “AAGGCGACATGGACCGGTTTTCCCGGTAATCCGTATTTGGA (site AAGGCGACTTC)”, the “recombinant UMI read abundance (log10)” value turned out to be 0.0223. Next, “AAGGGCCCATGGACCGGTTTTCCCGGTAATCCGTATTTGGC (site AAGGGCCCTGC)”: 0.674; “AAGGGGTCATGGACCGGTTTTCCCGGTAATCCGTATTTGAT (site AAGGGGTCTAT)”: 2.94; “AAGGGTTCATGGACCGGTTTTCCCGGTAATCCGTATTTGTC (site AAGGGTTCTGA)”: 2.5. For “AAGGTTGCATGGACCGGTTTTCCCGGTAATCCGTATTTGCA (site AAGGTTGCTTG)”, the “recombinant UMI read abundance (log10)” value turned out to be 2.22. As to “AAGTAACCATGGACCGGTTTTCCCGGTAATCCGTATTTGGA (site AAGTAACCTTC)”, the “recombinant UMI read abundance (log10)” value was 0.105. Next, “AAGTACGCATGGACCGGTTTTCCCGGTAATCCGTATTTGGG (site AAGAACGCTCC)”: 0.14. To “AAGTACGCATGGACCGGTTTTCCCGGTAATCCGTATTTGGG (site AAGCACGCTCC)” belongs 0.0289; to “AAGTACGCATGGACCGGTTTTCCCGGTAATCCGTATTTGGG (site AAGGACGCTCC)”, 0.492.

“AAGTACGCATGGACCGGTTTTCCCGGTAATCCGTATTTGGG (site AAGTACGCTCC)”: the “recombinant UMI read abundance (log10)” value was 0.423.

Regarding “AAGTCCACATGGACCGGTTTTCCCGGTAATCCGTATTTGCT (site AAGTCCACTAG)”, the “recombinant UMI read abundance (log10)” value was 1.56. In the case of “AAGTTACCATGGACCGGTTTTCCCGGTAATCCGTATTTGAC (site AAGTTACCTGT)”, the “recombinant UMI read abundance (log10)” value was 0. As for “AATAGCCCATGGACCGGTTTTCCCGGTAATCCGTATTTGAC (site AATAGCCCTGT)”, the “recombinant UMI read abundance (log10)” value was 1.07. To “AATAGTGCATGGACCGGTTTTCCCGGTAATCCGTATTTGAG (site AATAGTGCTCT)” belongs 1.4; to “AATATAGCATGGACCGGTTTTCCCGGTAATCCGTATTTGCC (site AATATAGCTGG)”, 1.53; to “AATATGACATGGACCGGTTTTCCCGGTAATCCGTATTTGTG (site AATATGACTCA)”, 0.774. Next, “AATCACCCATGGACCGGTTTTCCCGGTAATCCGTATTTGCT (site AATCACCCTAG)”: 0.532; “AATCATACATGGACCGGTTTTCCCGGTAATCCGTATTTGGT (site AATCATACTAC)”: 0.556. In the case of “AATCTCACATGGACCGGTTTTCCCGGTAATCCGTATTTGCT (site AATCTCACTAG)”, the “recombinant UMI read abundance (log10)” value came to 1.64. “AATCTCCCATGGACCGGTTTTCCCGGTAATCCGTATTTGCT (site AATCTCCCTAG)”: the “recombinant UMI read abundance (log10)” value stood at 0.736. Next, “AATGAGTCATGGACCGGTTTTCCCGGTAATCCGTATTTGAC (site AATGAGTCTGT)”: 3.25; “AATGAGTCATGGACCGGTTTTCCCGGTAATCCGTATTTGAC (site AATGCGTCTGT)”: 0; “AATGAGTCATGGACCGGTTTTCCCGGTAATCCGTATTTGAC (site AATGGGTCTGT)”: 0. “AATGAGTCATGGACCGGTTTTCCCGGTAATCCGTATTTGAC (site AATGTGTCTGT)”: the “recombinant UMI read abundance (log10)” value was determined as 0.822. With “AATGAGTCATGGACCGGTTTTCCCGGTAATCCGTATTTGAT (site AATGAGTCTAT)”, the “recombinant UMI read abundance (log10)” value turned out to be 2.52. As to “AATGATCCATGGACCGGTTTTCCCGGTAATCCGTATTTGCG (site AATGATCCTCG)”, the “recombinant UMI read abundance (log10)” value worked out at 0.677. Regarding “AATGGCCCATGGACCGGTTTTCCCGGTAATCCGTATTTGTA (site AATGGCCCTTA)”, the “recombinant UMI read abundance (log10)” value worked out at 0.0128.

In the case of “AATGTAACATGGACCGGTTTTCCCGGTAATCCGTATTTGAT (site AATGTAACTAA)”, the “recombinant UMI read abundance (log10)” value was 0.00583. For “AATGTAACATGGACCGGTTTTCCCGGTAATCCGTATTTGAT (site AATGTAACTAC)”, the “recombinant UMI read abundance (log10)” value came out at 0.00741.

On to “AATGTAACATGGACCGGTTTTCCCGGTAATCCGTATTTGAT (site AATGTAACTAG)”, for which the “recombinant UMI read abundance (log10)” value came out at 0.00602.
